The supplement of paper PMC12076712
± gives the standard deviation of the averaged measurements.

Assays:
Assay in all cases: pIC50, kinobeads binding competition
Details in all cases: cell material: Jurkat lysate
ARAF = ARAF (UniProt P10398)
CAMKK2 = CAMKK2 (UniProt Q96RR4)
FER = FER (UniProt P16591)
ICK = target: T1, ICK (UniProt Q9UPZ9)
T1 sequence (whole entry): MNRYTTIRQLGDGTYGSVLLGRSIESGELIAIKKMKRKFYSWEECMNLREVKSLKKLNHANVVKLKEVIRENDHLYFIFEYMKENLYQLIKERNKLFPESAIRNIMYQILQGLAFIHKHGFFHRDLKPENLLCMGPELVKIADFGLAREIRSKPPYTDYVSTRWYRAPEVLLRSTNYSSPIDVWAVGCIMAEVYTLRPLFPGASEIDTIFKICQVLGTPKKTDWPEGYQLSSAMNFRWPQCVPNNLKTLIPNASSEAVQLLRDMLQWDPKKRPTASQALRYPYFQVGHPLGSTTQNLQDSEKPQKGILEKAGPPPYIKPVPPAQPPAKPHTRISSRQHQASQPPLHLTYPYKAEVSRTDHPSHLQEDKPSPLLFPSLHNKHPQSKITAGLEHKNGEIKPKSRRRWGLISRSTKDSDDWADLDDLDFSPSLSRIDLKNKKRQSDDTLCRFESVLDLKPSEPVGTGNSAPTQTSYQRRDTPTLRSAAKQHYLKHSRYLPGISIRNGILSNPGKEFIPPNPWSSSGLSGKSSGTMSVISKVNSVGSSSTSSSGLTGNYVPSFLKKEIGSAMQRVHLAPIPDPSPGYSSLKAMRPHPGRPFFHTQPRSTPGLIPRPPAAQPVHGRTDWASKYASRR

NEK7 = NEK7 (UniProt Q8TDX7)
PHKG2 = target: T2, PHKG2 (UniProt P15735)
T2 sequence (whole entry): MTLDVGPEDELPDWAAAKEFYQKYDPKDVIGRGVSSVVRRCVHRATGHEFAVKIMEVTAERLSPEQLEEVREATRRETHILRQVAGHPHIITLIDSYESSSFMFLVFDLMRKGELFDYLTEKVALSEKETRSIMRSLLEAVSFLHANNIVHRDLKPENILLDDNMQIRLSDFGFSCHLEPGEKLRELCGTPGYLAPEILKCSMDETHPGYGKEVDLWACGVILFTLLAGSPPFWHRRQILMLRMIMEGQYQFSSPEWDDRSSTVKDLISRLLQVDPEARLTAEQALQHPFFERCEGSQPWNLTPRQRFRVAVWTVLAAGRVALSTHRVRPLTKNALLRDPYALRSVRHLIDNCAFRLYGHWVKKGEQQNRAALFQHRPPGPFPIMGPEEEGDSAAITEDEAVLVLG

PIM3 = PIM3 (UniProt Q86V86)
RAF1 = RAF1 (UniProt P04049)
Chain of RAF1 (P04049 whole entry): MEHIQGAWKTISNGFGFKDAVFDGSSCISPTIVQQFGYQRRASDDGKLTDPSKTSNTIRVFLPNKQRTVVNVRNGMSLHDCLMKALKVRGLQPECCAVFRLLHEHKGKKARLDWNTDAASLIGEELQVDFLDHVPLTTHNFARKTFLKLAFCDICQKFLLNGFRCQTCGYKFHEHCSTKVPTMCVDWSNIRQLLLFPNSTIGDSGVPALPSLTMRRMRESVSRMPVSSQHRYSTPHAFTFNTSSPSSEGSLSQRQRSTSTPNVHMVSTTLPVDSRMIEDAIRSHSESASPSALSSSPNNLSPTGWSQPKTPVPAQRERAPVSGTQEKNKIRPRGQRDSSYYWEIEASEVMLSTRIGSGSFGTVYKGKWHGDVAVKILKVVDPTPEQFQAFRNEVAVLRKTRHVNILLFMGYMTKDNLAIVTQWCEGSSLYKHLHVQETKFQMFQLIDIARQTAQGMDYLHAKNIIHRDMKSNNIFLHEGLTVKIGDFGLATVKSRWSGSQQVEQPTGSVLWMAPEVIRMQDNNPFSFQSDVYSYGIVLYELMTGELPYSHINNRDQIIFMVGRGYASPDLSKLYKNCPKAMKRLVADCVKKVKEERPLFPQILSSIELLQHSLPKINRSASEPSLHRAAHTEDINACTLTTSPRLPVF

RIPK3 = RIPK3 (UniProt Q9Y572)
TGFBR1 = target: T3, TGFBR1 (UniProt P36897)
T3 sequence (whole entry): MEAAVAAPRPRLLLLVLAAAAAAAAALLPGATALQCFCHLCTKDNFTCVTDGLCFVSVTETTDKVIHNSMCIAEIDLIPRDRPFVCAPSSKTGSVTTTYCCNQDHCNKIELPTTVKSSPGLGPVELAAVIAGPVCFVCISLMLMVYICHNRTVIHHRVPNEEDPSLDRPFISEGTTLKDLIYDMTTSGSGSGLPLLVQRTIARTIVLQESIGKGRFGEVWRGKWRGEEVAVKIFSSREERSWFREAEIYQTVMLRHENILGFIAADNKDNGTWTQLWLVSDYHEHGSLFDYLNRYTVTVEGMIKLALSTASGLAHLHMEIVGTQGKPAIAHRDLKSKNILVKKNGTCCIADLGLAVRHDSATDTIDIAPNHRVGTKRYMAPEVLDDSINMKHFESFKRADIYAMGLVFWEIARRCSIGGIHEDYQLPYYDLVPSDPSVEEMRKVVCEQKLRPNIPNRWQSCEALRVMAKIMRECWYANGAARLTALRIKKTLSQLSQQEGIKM

ULK3 = target: T4, ULK3 (UniProt Q6PHR2)
T4 sequence (whole entry): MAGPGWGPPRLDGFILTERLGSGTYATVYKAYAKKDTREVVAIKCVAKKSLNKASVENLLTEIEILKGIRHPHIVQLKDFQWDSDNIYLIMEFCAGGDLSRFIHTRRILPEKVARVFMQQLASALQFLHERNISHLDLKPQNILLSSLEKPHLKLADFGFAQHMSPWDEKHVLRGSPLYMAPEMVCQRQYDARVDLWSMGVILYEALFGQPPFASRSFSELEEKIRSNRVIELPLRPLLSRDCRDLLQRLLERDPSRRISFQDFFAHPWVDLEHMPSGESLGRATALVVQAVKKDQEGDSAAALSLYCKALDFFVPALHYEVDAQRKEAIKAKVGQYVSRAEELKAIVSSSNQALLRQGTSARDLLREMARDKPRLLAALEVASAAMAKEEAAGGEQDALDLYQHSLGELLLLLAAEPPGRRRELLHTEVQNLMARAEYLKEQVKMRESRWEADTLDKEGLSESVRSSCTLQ

UniProt O94768 = target: T5, UniProt O94768
T5 sequence (whole entry): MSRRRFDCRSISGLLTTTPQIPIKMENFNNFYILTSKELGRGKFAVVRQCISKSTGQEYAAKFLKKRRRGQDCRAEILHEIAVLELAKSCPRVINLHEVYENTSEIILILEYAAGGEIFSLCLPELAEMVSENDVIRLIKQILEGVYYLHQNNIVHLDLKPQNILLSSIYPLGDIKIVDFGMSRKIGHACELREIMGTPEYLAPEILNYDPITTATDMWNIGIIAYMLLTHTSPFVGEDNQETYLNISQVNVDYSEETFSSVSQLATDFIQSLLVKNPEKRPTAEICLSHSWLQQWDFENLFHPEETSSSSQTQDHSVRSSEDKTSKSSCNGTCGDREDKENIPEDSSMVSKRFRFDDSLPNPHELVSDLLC

UniProt Q13164 = target: UniProt Q13164
Chain of UniProt Q13164 (Q13164 whole entry, looked up): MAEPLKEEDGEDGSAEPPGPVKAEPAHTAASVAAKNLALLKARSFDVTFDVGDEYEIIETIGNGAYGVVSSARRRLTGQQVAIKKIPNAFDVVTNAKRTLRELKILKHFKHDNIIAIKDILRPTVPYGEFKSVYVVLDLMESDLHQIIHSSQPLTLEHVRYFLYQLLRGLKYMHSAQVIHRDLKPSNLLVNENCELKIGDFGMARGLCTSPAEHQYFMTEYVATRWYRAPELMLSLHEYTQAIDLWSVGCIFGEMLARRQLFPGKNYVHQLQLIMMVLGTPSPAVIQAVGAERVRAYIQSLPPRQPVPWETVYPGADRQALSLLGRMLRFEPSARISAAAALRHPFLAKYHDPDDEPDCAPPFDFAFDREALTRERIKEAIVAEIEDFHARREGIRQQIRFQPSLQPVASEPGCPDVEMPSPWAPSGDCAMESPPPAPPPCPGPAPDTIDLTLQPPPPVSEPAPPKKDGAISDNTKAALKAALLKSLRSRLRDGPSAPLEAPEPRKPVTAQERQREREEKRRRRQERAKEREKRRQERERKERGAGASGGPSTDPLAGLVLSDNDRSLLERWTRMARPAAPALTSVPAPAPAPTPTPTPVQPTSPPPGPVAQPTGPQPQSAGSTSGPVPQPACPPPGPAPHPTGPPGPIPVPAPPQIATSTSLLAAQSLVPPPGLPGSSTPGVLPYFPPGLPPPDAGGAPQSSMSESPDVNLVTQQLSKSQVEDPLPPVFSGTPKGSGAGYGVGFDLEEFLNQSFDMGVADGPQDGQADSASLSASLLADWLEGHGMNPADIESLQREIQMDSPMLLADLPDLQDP

UniProt Q5TCX8 = target: UniProt Q5TCX8
Chain of UniProt Q5TCX8 (Q5TCX8 whole entry): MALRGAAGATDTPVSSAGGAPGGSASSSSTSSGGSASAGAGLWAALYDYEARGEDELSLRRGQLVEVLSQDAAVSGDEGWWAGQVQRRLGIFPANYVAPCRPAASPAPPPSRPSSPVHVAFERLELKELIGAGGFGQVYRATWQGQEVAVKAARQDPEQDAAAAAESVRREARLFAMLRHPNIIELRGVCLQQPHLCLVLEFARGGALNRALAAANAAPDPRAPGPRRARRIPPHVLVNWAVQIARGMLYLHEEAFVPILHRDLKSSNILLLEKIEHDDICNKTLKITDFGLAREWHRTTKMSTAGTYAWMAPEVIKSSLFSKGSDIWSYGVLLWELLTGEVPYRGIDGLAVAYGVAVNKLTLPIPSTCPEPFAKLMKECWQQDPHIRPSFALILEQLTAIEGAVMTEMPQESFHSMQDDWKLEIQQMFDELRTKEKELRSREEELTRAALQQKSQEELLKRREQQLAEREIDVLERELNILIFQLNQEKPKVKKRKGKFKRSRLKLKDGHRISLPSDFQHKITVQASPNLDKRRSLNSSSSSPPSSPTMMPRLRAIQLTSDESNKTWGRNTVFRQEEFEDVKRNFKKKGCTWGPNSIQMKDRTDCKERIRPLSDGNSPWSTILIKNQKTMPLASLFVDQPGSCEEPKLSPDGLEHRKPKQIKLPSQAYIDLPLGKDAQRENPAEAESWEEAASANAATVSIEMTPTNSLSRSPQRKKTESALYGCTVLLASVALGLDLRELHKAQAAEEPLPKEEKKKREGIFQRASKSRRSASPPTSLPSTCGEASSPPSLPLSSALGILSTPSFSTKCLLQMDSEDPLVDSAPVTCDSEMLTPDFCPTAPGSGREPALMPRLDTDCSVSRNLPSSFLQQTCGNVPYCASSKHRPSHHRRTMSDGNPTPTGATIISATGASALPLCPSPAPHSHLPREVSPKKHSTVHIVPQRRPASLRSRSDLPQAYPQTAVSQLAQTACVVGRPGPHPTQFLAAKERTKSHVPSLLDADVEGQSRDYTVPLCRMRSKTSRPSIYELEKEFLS

Chain of CAMKK2 (Q96RR4 whole entry, looked up): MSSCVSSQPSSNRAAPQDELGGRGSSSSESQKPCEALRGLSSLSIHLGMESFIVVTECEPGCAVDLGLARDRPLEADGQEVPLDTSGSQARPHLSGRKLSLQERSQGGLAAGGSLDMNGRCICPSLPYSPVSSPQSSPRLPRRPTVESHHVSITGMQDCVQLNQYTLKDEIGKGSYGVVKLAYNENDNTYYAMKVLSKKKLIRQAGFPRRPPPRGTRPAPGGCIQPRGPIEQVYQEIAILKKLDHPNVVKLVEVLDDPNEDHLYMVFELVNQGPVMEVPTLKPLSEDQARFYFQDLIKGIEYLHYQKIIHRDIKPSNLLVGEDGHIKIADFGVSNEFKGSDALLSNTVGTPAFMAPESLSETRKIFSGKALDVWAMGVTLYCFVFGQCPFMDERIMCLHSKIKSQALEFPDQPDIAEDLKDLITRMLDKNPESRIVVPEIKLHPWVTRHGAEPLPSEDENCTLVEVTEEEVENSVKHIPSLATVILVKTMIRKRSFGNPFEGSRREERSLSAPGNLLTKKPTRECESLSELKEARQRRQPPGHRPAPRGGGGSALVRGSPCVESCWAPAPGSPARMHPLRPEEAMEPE
Chain of ARAF (P10398 whole entry): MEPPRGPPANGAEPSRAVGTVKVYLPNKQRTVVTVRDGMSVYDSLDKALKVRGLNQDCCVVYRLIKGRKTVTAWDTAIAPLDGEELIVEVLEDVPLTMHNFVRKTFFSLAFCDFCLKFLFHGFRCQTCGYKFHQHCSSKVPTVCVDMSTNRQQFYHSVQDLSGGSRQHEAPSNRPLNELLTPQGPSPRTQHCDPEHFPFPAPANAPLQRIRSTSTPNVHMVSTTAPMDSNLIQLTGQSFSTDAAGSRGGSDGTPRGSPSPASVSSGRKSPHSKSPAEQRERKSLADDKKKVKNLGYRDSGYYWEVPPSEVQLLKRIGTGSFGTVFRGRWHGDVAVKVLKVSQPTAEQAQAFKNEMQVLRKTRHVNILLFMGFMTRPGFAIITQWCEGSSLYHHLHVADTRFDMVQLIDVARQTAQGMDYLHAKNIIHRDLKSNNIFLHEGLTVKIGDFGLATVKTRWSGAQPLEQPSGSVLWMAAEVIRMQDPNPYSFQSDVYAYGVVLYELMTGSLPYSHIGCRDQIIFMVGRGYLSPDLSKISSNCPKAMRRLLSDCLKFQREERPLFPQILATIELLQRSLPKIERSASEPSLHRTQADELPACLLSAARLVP
Chain of FER (P16591 whole entry, looked up): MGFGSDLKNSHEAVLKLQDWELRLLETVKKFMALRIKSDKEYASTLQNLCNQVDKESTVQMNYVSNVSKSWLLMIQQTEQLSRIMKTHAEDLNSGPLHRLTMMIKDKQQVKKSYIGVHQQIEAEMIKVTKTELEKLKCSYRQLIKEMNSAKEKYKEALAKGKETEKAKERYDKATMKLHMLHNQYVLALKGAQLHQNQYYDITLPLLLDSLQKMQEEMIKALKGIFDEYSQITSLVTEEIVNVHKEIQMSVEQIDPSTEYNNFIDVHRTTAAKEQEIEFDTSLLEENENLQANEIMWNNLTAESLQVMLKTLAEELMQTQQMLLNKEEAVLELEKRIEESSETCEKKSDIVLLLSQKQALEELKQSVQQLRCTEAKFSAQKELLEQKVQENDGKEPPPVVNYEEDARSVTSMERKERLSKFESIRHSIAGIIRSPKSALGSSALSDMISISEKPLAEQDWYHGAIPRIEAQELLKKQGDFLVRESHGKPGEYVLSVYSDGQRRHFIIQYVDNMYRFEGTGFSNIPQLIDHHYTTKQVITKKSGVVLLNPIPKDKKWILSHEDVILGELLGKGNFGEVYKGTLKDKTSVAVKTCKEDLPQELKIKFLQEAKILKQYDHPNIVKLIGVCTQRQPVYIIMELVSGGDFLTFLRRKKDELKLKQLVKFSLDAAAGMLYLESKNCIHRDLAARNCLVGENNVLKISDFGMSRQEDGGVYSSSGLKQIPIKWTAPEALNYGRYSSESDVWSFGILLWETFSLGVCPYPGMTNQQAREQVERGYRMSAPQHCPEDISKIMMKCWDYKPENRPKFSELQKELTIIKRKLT

pIC50 (ARAF): < 4.52 | pIC50 (CAMKK2): 5.245 ± 0.035 | pIC50 (FER): < 4.52 | pIC50 (ICK): 6.39 | pIC50 (NEK7): < 4.52 | pIC50 (PHKG2): < 4.52 | pIC50 (PIM3): < 4.52 | pIC50 (RAF1): < 4.52 | pIC50 (RIPK3): < 4.52 | pIC50 (TGFBR1): < 4.52 | pIC50 (ULK3): < 4.52 | pIC50 (UniProt O94768): < 4.52 | pIC50 (UniProt Q13164): < 4.52 | pIC50 (UniProt Q5TCX8): < 4.52
SMILES: CCc1cnn2c(NCc3ccc[n+]([O-])c3)cc(N3CCCC[C@H]3CCO)nc12 [dinaciclib]
